{"source": "patent US12161733B2", "about": "“Chemical conjugates of Evans Blue derivatives and their use as radiotherapy and imaging agents for targeting prostate cancer” (THE UNITED STATES OF AMERICA, AS REPRESENTED BY THE …, priority 2018, dated 2024)", "origin": "cited, not measured here", "tested_on": "prostate cancer patients", "data": [{"smiles": "O=C([O-])CN1CCN(CC(=O)[O-])CCN(CC(=O)NCC2CCC(C(=O)N[C@@H](Cc3ccc4ccccc4c3)C(=O)NCCCC[C@H](NC(=O)N[C@@H](CCC(=O)O)C(=O)O)C(=O)O)CC2)CCN(CC(=O)[O-])CC1.[177Lu+3]", "note": "(some centres unmarked) [^177Lu-PSMA-617]", "values": [{"measurement": "side effects", "setting": "long-term toxicity unknown", "value": "only stage 1-2 hematologic toxicities and sporadically mild xerostomia and fatigue"}, {"measurement": "partial response rates", "setting": "up to 3 cycles, response limited to as few as several weeks in some patients", "value": "70%-80%"}]}]}
